Assay results as given in ChEMBL document CHEMBL1141141, “Novel, highly potent adenosine deaminase inhibitors containing the pyrazolo[3,4-d]pyrimidine ring system. Synthesis, structure-activity relationships, and molecular modeling studies” (J Med Chem, 2005).

biological target: T1, Adenosine deaminase (Bos taurus, UniProt P56658)
T1 sequence (P56658 whole entry): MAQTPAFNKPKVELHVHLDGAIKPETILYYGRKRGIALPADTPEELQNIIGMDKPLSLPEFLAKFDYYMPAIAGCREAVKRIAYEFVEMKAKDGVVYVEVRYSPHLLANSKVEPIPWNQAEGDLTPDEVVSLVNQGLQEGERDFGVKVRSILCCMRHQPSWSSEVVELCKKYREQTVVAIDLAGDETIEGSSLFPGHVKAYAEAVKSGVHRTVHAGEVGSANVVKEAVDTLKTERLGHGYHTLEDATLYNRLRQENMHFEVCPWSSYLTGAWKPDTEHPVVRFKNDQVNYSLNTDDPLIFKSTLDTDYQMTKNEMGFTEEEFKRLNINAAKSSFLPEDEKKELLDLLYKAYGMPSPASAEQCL

**Q.** For `NC1=NC=NC2C1C=NN2CCO` (stereo not drawn), which Ki is on record?
**A.** 4620 nM

**Q.** For `CCCCCCCCC(O)Cn1cc2c(N)ncnc2n1` (stereo not drawn), which Ki is on record?
**A.** 0.28 nM

**Q.** `CCCCCCCC[C@H](O)Cn1cc2c(N)ncnc2n1` was tested. Which Ki did it give?
**A.** 37.5 nM

**Q.** `CCCCCCCC[C@@H](O)Cn1cc2c(N)ncnc2n1` was tested. Which Ki did it give?
**A.** 0.053 nM

**Q.** With `CCCCCCC(O)Cn1cc2c(N)ncnc2n1` (stereo not drawn) as the molecule, how does the Ki read?
**A.** 1 nM

**Q.** With `CCCCCCC(C(C)O)N1N=CC2C(N)=NC=NC21` (stereo not drawn) as the molecule, how does the Ki read?
**A.** 66.1 nM

biological target: T1, Adenosine deaminase; experiment: Inhibitory constant against bovine spleen Adenosine deaminase at >10e-5; n.a.=not active; assay type: tissue-based

**Q.** For `Nc1ncnc2nn(Cc3ccccc3)cc12`, which Ki is on record?
**A.** Not Active

**Q.** Which Ki does the source give for `CCCCCCCCCCN1N=CC2C(N)=NC=NC21` (stereo not drawn) here?
**A.** Not Active

**Q.** How did the Ki turn out when `CCCCCCCCCCCCn1cc2c(N)ncnc2n1` was run?
**A.** Not Active

**Q.** With `CCCCCCCCCCn1cc2c(N)nc(-c3ccccc3)nc2n1` as the molecule, how does the Ki read?
**A.** Not Active

**Q.** How did the Ki turn out when `CCCCCCC(O)CN1N=CC2C(N)=NC=NC21` (stereo not drawn) was run?
**A.** Not Active

**Q.** With `Nc1ncnc2nn(CCc3ccccc3)cc12` as the molecule, how does the Ki read?
**A.** Not Active

**Q.** `CCCCCCCCCCCCN1N=CC2C(N)=NC=NC21` (stereo not drawn) was tested. Which Ki did it give?
**A.** Not Active

**Q.** `NC1=NC=NC2C1C=NN2Cc1ccccc1` (stereo not drawn) was tested. Which Ki did it give?
**A.** Not Active

**Q.** Which Ki does the source give for `CCCCCCCCCCCN1N=CC2C(N)=NC=NC21` (stereo not drawn) here?
**A.** Not Active

**Q.** `CCCCCCCCCCn1cc2c(NC(C)=O)ncnc2n1` was tested. Which Ki did it give?
**A.** Not Active

**Q.** `NC1=NC=NC2C1C=NN2CCc1ccccc1` (stereo not drawn) was tested. Which Ki did it give?
**A.** Not Active

**Q.** For `CCCCCCn1cc2c(N)ncnc2n1`, which Ki is on record?
**A.** Not Active
